# In patent publication US8518957B2, “Methanocarba adenosine derivatives, pharmaceutical compositions, and method of reducing intraocular pressure” (The United States of America, as represented by the …, priority 2009, dated 2013):
# Experiments:
# hA2AAR = target: T1, hA2AAR (Homo sapiens, UniProt P29274); experiment: Radioligand binding at human A2A AR ([3H]CGS21680, membranes of HEK-293 cells)
# T1 construct: expressed in transfected cells
# In short: (§1)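 Membranes from CHO (hA1, hA3) or HEK-293 (hA2A) cells were pretreated with adenosine deaminase and incubated 60 min at 25° C in pH 7.5 Tris/10 mM MgCl2. Radioligands were A1 [3H]NECA 3.5 nM, A2A [3H]CGS21680 10 nM and A3 [125I]I-AB-MECA 0.34 nM. Bound ligand was filtered and Ki derived.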
# human A1 AR [1] = target: T2, human A1 AR (Homo sapiens, UniProt P30542); settings: at 10 μM; model compounds; values from Tosh et al. and Melman et al.; cited from earlier work
# T2 construct: expressed in transfected cells
# T2 sequence (P30542 1-326): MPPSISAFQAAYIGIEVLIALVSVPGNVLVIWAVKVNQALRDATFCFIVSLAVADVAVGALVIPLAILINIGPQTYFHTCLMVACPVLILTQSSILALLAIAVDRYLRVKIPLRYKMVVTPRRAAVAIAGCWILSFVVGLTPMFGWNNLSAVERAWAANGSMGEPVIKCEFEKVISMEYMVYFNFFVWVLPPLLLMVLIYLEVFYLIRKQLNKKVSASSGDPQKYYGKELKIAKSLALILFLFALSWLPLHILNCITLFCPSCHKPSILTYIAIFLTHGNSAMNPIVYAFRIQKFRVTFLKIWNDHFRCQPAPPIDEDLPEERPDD
# human A3AR = target: T3, human A3AR (Homo sapiens, UniProt P0DMS8); experiment: Cyclic AMP accumulation assay: inhibition of forskolin-stimulated cyclic AMP production in AR-transfected CHO cells; type: cell-based; settings: for % Inhibition of cAMP formation at hA3 AR: at 10 μM, in comparison to the maximal effect of full agonist NECA at 10 μM
# T3 construct: expressed in transfected cells
# T3 sequence (P0DMS8 1-318): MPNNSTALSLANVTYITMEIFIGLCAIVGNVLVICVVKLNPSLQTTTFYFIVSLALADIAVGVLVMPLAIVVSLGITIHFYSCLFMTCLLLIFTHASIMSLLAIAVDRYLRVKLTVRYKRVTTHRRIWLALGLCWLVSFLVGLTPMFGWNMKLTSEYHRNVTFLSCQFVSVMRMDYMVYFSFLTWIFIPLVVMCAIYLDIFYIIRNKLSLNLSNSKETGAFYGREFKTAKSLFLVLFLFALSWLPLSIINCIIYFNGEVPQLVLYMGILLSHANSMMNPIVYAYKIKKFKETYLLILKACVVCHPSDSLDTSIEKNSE
# Procedure: Intracellular cyclic AMP levels were measured with a competitive protein binding method. […] CHO cells that expressed the recombinant human A3AR were harvested by trypsinization. After centrifugation and resuspended in medium, cells were planted in 24-well plates in 1.0 mL medium. After 24 h, the medium was removed and cells were washed three times with 1 mL DMEM, containing 50 mM HEPES, pH 7.4. […] After 45 min forskolin (10 μM) was added to the medium, and incubation was continued for an additional 15 min. […] The cell lysate was resuspended and stored at −20° C. For determination of cyclic AMP production, protein kinase A (PKA) was incubated with [^3H]cyclic AMP (2 nM) in K2HPO4/EDTA buffer (K2HPO4, 150 mM; EDTA, 10 mM), 20 μL of the cell lysate, and 30 μL 0.1 M HCl or 50 μL of cyclic AMP solution (0-16 pmol/200 μL for standard curve). Bound radioactivity was separated by rapid filtration through Whatman GF/C filters and washed once with cold buffer. Bound radioactivity was measured by liquid scintillation spectrometry.
# Bound radioactivity was separated by rapid filtration through Whatman GF/C filters and washed the filters once with cold buffer. Bound radioactivity was measured with liquid scintillation spectrometry.
# human A1 AR [2] = target: T2, human A1 AR; experiment: Radioligand binding at human A1 AR ([3H]NECA, membranes of CHO cells)
# In short: as §1
# T1 sequence (P29274 whole entry): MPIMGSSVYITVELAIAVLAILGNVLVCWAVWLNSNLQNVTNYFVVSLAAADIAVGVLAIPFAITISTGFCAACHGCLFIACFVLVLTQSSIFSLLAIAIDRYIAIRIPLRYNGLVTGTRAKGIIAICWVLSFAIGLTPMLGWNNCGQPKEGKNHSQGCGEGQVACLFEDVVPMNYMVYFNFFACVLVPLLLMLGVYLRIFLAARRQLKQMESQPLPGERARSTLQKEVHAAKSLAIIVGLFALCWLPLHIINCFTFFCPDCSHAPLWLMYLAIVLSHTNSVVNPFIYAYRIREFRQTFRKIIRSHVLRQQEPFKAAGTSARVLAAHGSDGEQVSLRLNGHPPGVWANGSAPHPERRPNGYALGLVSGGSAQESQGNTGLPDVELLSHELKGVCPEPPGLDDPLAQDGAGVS
structure (smiles),measurement,setting,value
"C#CCCCCC#Cc1nc(NCc2cccc(Cl)c2)c2ncn(C3C(O)C(O)C4(C(=O)NC)CC34)c2n1 (stereo not drawn) [Compound 9, (1′S, 2′R, 3′S, 4′S, 5′S)-4′-[6-(3-Chlorobenzylamino)-2-(1,7-octadiynyl)-9H-purin-9-yl]-2′,3′-dihydroxybicyclo[3.1.0]hexane-1′-carboxylic acid N-methylamide]",Ki,"hA2AAR; [3H]37, HEK293 cells, read-out: Affinity (Ki, nM), A2A",7040 ± 1430 nM
same,"% inhibition, A1",human A1 AR [1],(31%
same,% Inhibition of cAMP formation at hA3 AR,human A3AR,60.2 ± 17.0%
same,% Inhibition of cAMP accumulation at the hA3AR,"human A3AR; concentration 10 μM, in comparison to full agonist NECA at 1 μM",60.2 ± 17.0%
"CNC(=O)[C@@]12C[C@@H]1[C@@H](n1cnc3c(NCc4cccc(Cl)c4)nc(C#CCCCCc4cn(-c5ccc(N=C=S)cc5)nn4)nc31)[C@H](O)[C@@H]2O [Compound 26, (1S,2R,3S,4R,5S)-6-(3-Chlorobenzylamino)-(2-(6-(1-(4-isothiocyante-phenyl)-1H-1,2,3-triazol-4-yl)hex-1-ynyl)-9H-purin-9-yl)-2′,3′-dihydroxybicyclo[3.1.0]hexane-1′-carboxylic acid N-methylamide]",inhibition at 10 µM,human A1 AR [2],2%
same,inhibition at 10 µM,hA2AAR,28%
same,% Inhibition of cAMP formation at hA3 AR,human A3AR,19.5 ± 14.5%
